The text below walks through data of ChEMBL document CHEMBL1667817, “Design, synthesis and biological evaluation of new arylpiperazine derivatives bearing a flavone moiety as α1-adrenoceptor antagonists” (Bioorg Med Chem Lett, 2011).

As a reminder, the pA2 is a measure of antagonist potency on a negative log scale.

In this assay the target is T1, Adrenergic receptor alpha-1 (Rattus norvegicus, UniProt P15823+P23944+P43140).
T1 sequence (P15823 whole entry): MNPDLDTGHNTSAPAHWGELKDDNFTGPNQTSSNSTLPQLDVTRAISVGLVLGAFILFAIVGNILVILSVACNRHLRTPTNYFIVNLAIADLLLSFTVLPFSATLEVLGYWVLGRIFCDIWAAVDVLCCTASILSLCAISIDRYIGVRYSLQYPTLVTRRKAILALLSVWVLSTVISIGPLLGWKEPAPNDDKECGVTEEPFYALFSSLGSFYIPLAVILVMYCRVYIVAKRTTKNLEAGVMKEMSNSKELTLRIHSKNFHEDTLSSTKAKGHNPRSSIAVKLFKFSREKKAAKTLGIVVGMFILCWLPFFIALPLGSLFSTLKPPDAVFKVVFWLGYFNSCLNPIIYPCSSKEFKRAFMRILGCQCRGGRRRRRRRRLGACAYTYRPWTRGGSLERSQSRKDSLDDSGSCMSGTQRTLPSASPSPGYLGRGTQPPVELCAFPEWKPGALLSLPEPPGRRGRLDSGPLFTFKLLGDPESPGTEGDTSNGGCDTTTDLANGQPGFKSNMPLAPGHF
T1 sequence (P23944 whole entry): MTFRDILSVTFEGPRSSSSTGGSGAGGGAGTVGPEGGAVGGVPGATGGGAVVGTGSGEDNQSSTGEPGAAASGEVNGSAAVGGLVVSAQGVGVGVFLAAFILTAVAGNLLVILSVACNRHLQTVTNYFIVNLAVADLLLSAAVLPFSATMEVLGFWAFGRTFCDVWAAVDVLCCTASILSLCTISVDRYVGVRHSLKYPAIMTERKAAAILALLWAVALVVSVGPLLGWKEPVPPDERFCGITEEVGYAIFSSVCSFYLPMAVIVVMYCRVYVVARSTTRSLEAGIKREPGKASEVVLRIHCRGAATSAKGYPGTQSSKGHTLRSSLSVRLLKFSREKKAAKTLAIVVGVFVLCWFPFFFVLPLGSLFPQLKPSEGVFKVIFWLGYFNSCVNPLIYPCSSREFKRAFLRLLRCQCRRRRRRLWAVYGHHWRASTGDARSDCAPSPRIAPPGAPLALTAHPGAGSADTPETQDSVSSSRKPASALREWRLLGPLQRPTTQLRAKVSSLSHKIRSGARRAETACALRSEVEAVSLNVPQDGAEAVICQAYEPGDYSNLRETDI
T1 sequence (P43140 whole entry): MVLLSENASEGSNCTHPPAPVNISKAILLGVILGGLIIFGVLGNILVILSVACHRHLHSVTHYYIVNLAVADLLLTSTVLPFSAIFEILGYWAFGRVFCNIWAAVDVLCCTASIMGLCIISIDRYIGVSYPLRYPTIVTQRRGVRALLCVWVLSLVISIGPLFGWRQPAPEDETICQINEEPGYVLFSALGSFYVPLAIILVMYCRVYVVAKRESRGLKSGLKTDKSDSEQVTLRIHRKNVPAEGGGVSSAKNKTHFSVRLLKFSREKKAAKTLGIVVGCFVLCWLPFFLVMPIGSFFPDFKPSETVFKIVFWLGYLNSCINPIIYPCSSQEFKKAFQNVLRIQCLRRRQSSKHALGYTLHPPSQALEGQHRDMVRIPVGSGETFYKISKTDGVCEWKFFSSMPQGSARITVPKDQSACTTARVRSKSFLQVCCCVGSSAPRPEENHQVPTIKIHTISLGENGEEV
As to the kind of experiment: Antagonist activity at alpha1-adrenoceptor in rat anococcygeal muscle assessed as inhibition of phenylephrine-induced contraction. Format: functional.
With `O=c1cc(-c2ccc(Cl)cc2)oc2cc(O)ccc12`, the pA2 is 6.845. Regarding `O=c1cc(-c2ccccc2)oc2cc(OCCN3CCN(c4ccccc4)CC3)ccc12`, the pA2 is on record as 8.526. With `O=c1cc(-c2ccccc2)oc2cc(OCCCN3CCN(c4ccccc4)CC3)ccc12`, the pA2 was found to be 8.177.

For the molecule `O=c1cc(-c2ccccc2)oc2cc(OCCCCN3CCN(c4ccccc4)CC3)ccc12`, the pA2 stood at 8.333. With `Cc1ccc(N2CCN(CCOc3ccc4c(=O)cc(-c5ccccc5)oc4c3)CC2)cc1` the figure was 8.647; with `Cc1ccc(N2CCN(CCCOc3ccc4c(=O)cc(-c5ccccc5)oc4c3)CC2)cc1`, 7.684. For the molecule `Cc1ccc(N2CCN(CCCCOc3ccc4c(=O)cc(-c5ccccc5)oc4c3)CC2)cc1`, the pA2 is recorded as 6.709. Turning to `Cc1ccccc1N1CCN(CCOc2ccc3c(=O)cc(-c4ccccc4)oc3c2)CC1`, the pA2 is listed as 7.383.

As to `Cc1ccccc1N1CCN(CCCOc2ccc3c(=O)cc(-c4ccccc4)oc3c2)CC1`, the pA2 is 6.93. Under `Cc1ccccc1N1CCN(CCCCOc2ccc3c(=O)cc(-c4ccccc4)oc3c2)CC1` stands 7.71. Under `O=c1cc(-c2ccc(Cl)cc2)oc2cc(OCCN3CCN(c4ccccc4)CC3)ccc12` stands 8.579; under `O=c1cc(-c2ccc(Cl)cc2)oc2cc(OCCCN3CCN(c4ccccc4)CC3)ccc12`, 8.072.

In the case of `O=c1cc(-c2ccc(Cl)cc2)oc2cc(OCCCCN3CCN(c4ccccc4)CC3)ccc12`, the pA2 stood at 7.914. With `Cc1ccc(N2CCN(CCOc3ccc4c(=O)cc(-c5ccc(Cl)cc5)oc4c3)CC2)cc1` the figure was 8.93; with `Cc1ccc(N2CCN(CCCOc3ccc4c(=O)cc(-c5ccc(Cl)cc5)oc4c3)CC2)cc1`, 8.088. With `Cc1ccc(N2CCN(CCCCOc3ccc4c(=O)cc(-c5ccc(Cl)cc5)oc4c3)CC2)cc1`, the pA2 was determined as 8.498. Under `Cc1ccccc1N1CCN(CCOc2ccc3c(=O)cc(-c4ccc(Cl)cc4)oc3c2)CC1` stands 8.207; under `Cc1ccccc1N1CCN(CCCOc2ccc3c(=O)cc(-c4ccc(Cl)cc4)oc3c2)CC1`, 7.772. Regarding `Cc1ccccc1N1CCN(CCCCOc2ccc3c(=O)cc(-c4ccc(Cl)cc4)oc3c2)CC1`, the pA2 worked out at 7.471.

Consider `O=c1cc(-c2ccccc2)oc2cc(OCCBr)ccc12`, for which the pA2 came to 6.897. With `O=c1cc(-c2ccc(Cl)cc2)oc2cc(OCCBr)ccc12` the figure was 6.925; with `O=c1cc(-c2ccccc2)oc2cc(OCCCBr)ccc12`, 6.409; with `O=c1cc(-c2ccc(Cl)cc2)oc2cc(OCCCBr)ccc12`, 6.168. With `O=c1cc(-c2ccccc2)oc2cc(OCCCCBr)ccc12` the figure was 6.538. Under `O=c1cc(-c2ccc(Cl)cc2)oc2cc(OCCCCBr)ccc12` stands 6.368. Consider `O=c1cc(-c2ccccc2)oc2cc(O)ccc12` [7-HYDROXYFLAVONE], for which the pA2 turned out to be 6.609.
